Data from PMC6028903, “Solubility Thermodynamics of CyMe 4 -BTBP in Various Diluents Mixed with TBP” (Journal of Solution Chemistry, 2018).
Values after ≈ are worked out from the molar mass of the structure shown. Like-named read-outs stand apart in the source and are kept apart here. Marks after values point to notes of the source that are not given here.

Legend:
[1] = literature; cited from earlier work
[2] = literature; cited from earlier work; remark: listed apart in the source
[3] = design: method as in earlier work; conditions: literature; cited from earlier work
[4] = 298 K; cited from earlier work
[5] = design: method as in doi:10.1080/07366299.2011.539462; conditions: cited from earlier work
[6] = Solubility of CyMe4-BTBP in GANEX solvents (70% vol diluent, 30% vol TBP), UV-VIS of the Fe2+ complex; assay type: physicochemical; conditions: organic solvent or mixture, thermodynamic from solid
[7] = 10 mmol/L CyMe4-BTBP, cited from earlier work
[8] = Dissolution thermodynamics of CyMe4-BTBP (van't Hoff linear fit and heat capacity calculation); assay type: physicochemical; conditions: for c (288 K), calculated CyMe 4 -BTBP concentration / c (298 K), calculated CyMe 4 -BTBP concentration / c (308 K), calculated CyMe 4 -BTBP concentration: calculated from linear fits; for ΔG^0 (288 K) / ΔG^0 (298 K) / ΔG^0 (308 K): from linear fits; for ΔH^0 / ΔS^0: calculated using ΔCp; for ΔH^0 linear / ΔS^0 linear: linear fit
[9] = Density (tensiometer with density probe); assay type: physicochemical; conditions: 294 K, 0.1 MPa
Description: (§1) The density, ρ , and surface tension, γ , against air (using the du Noüy ring method) for the different solvents was measured at room temperature (293–295 K) using a tensiometer (Sigma 700, Attension). The surface tensiometer ring was lowered into the organic phase until it was totally immersed. The tensiometer then measured the surface tension automatically by slowly pulling out the ring of the organic phase and measuring the force required to detach the ring from the organic surface. The density was measured using the same tensiometer and a calibrated density probe.

[10] = Surface tension against air (du Noüy ring method); assay type: physicochemical; conditions: 294 K, 0.1 MPa
Description: as §1

[11] = Cyclohex./TBP b, pre-equilibrated with HNO3
[12] = Cyclohex./TBP b, pre-equilibrated
[13] = FS-13/TBP b, pre-equilibrated with HNO3
[14] = Octanol/TBP b, pre-equilibrated with HNO3
[15] = Octanol/TBP b, pre-equilibrated

CCCCCCCCO [1-Octanol, 1-octanol]
Surface tension [1]: 27.2^a mN · m ^-1
Flash point [2]: 358 K^a
Density [3]: 0.83^b g · cm ^-3
Solvent in water [4]: 0.0538^b wt%
Water in solvent [4]: 4.2^c wt%

CC1(C)CCC(C)(C)c2nc(-c3cccc(-c4cccc(-c5nnc6c(n5)C(C)(C)CCC6(C)C)n4)n3)nnc21 [CyMe 4 -BTBP, 6,6′-bis(5,5,8,8-tetramethyl-5,6,7,8-tetrahydrobenzo[1,2,4]triazin-3-yl)[2,2′]bipyridine]
Solubility in a nitric acid aqueous phase [5]: not soluble above the detection limit
solubility at 3 days ([6]; GANEX solvent 1-octanol/TBP, 25 °C, Octanol/TBP, 70% vol diluent and 30% vol TBP, 298 K, read-out: CyMe 4 -BTBP solubility at 298 K): 13 mM (≈ 6.95 mg/mL)
solubility at 3 days ([6]; GANEX solvent FS-13/TBP, 25 °C, FS-13/TBP, 70% vol diluent and 30% vol TBP, 298 K, read-out: CyMe 4 -BTBP solubility at 298 K): 130 mM (≈ 69.5 mg/mL)
solubility at 3 days ([6]; GANEX solvent FS-13/TBP, 70% vol FS-13 and 30% vol TBP, 4 mol/L NaCl in Milli-Q water instead of nitric acid, single sample, read-out: CyMe 4 -BTBP solubility): 20 mM (≈ 10.7 mg/mL)
solubility at 3 days ([6]; GANEX solvent FS-13/TBP, 70% vol FS-13 and 30% vol TBP, 4 mol/L hydrochloric acid instead of nitric acid, single sample, read-out: CyMe 4 -BTBP solubility): 30 mM (≈ 16 mg/mL)
solubility at 3 days ([6]; GANEX solvent FS-13/TBP, 70% vol FS-13 and 30% vol TBP, Milli-Q water instead of nitric acid, single sample, read-out: CyMe 4 -BTBP solubility): 15 mM (≈ 8.02 mg/mL)
solubility at 3 days ([6]; GANEX solvent cyclohexanone/TBP, 25 °C, Cyclohex./TBP, 70% vol diluent and 30% vol TBP, 298 K, read-out: CyMe 4 -BTBP solubility at 298 K): 180 mM (≈ 96.2 mg/mL)
Americium distribution ratio at 298 K using 10 mmol · L ^-1 CyMe 4 -BTBP ([7]; Cyclohex./TBP): 160^b
Americium distribution ratio at 298 K using 10 mmol · L ^-1 CyMe 4 -BTBP ([7]; FS-13/TBP): 30^a
Americium distribution ratio at 298 K using 10 mmol · L ^-1 CyMe 4 -BTBP ([7]; Octanol/TBP): 30^c
c (288 K), calculated CyMe 4 -BTBP concentration ([8]; Cyclohex./TBP a, pristine): 13 mmol · L ^-1
ΔG^0 (288 K) ([8]; Cyclohex./TBP a, pristine): 10.5 kJ · mol ^-1
c (298 K), calculated CyMe 4 -BTBP concentration ([8]; Cyclohex./TBP a, pristine): 27 mmol · L ^-1
ΔG^0 (298 K) ([8]; Cyclohex./TBP a, pristine): 8.9 kJ · mol ^-1
c (308 K), calculated CyMe 4 -BTBP concentration ([8]; Cyclohex./TBP a, pristine): 56 mmol · L ^-1
ΔG^0 (308 K) ([8]; Cyclohex./TBP a, pristine): 7.4 kJ · mol ^-1
ΔH^0 ([8]; Cyclohex./TBP a, pristine): 53 kJ · mol ^-1
ΔS^0 ([8]; Cyclohex./TBP a, pristine): 150 J · mol ^-1· K ^-1
ΔH^0 linear ([8]; Cyclohex./TBP a, pristine): 54.4 ± 2.6 kJ · mol ^-1
ΔS^0 linear ([8]; Cyclohex./TBP a, pristine): 152.4 ± 1.9 J · mol ^-1· K ^-1
ΔCp [8, 11]: 1.4 kJ · mol ^-1· K ^-1
ΔH^0 [8, 11]: 15 kJ · mol ^-1
ΔS^0 [8, 11]: 38 J · mol ^-1· K ^-1
ΔH^0 linear [8, 11]: 13.3 ± 0.5 kJ · mol ^-1
ΔS^0 linear [8, 11]: 30.8 ± 0.3 J · mol ^-1· K ^-1
c (288 K), calculated CyMe 4 -BTBP concentration [8, 12]: 160 mmol · L ^-1
ΔG^0 (288 K) [8, 12]: 4.4 kJ · mol ^-1
c (298 K), calculated CyMe 4 -BTBP concentration [8, 12]: 190 mmol · L ^-1
ΔG^0 (298 K) [8, 12]: 4.1 kJ · mol ^-1
c (308 K), calculated CyMe 4 -BTBP concentration [8, 12]: 230 mmol · L ^-1
ΔG^0 (308 K) [8, 12]: 3.8 kJ · mol ^-1
ΔCp ([8]; FS-13/TBP a, pristine): 1.3 kJ · mol ^-1· K ^-1
c (288 K), calculated CyMe 4 -BTBP concentration ([8]; FS-13/TBP a, pristine): 14 mmol · L ^-1
ΔG^0 (288 K) ([8]; FS-13/TBP a, pristine): 10.3 kJ · mol ^-1
c (298 K), calculated CyMe 4 -BTBP concentration ([8]; FS-13/TBP a, pristine): 16 mmol · L ^-1
ΔG^0 (298 K) ([8]; FS-13/TBP a, pristine): 10.3 kJ · mol ^-1
c (308 K), calculated CyMe 4 -BTBP concentration ([8]; FS-13/TBP a, pristine): 17 mmol · L ^-1
ΔG^0 (308 K) ([8]; FS-13/TBP a, pristine): 10.4 kJ · mol ^-1
ΔH^0 ([8]; FS-13/TBP a, pristine, 288, 298, 308 K): 8 kJ · mol ^-1
ΔH^0 linear ([8]; FS-13/TBP a, pristine): 8.3 ± 0.6 kJ · mol ^-1
ΔH^0 [8, 13]: 27 kJ · mol ^-1
ΔS^0 [8, 13]: 72 J · mol ^-1· K ^-1
ΔH^0 linear [8, 13]: 26.6 ± 0.3 kJ · mol ^-1
ΔS^0 linear [8, 13]: 72.1 ± 0.2 J · mol ^-1· K ^-1
c (288 K), calculated CyMe 4 -BTBP concentration ([8]; FS-13/TBP b, pre-equilibrated): 90 mmol · L ^-1
ΔG^0 (288 K) ([8]; FS-13/TBP b, pre-equilibrated): 5.8 kJ · mol ^-1
c (298 K), calculated CyMe 4 -BTBP concentration ([8]; FS-13/TBP b, pre-equilibrated): 130 mmol · L ^-1
ΔG^0 (298 K) ([8]; FS-13/TBP b, pre-equilibrated): 5.1 kJ · mol ^-1
c (308 K), calculated CyMe 4 -BTBP concentration ([8]; FS-13/TBP b, pre-equilibrated): 180 mmol · L ^-1
ΔG^0 (308 K) ([8]; FS-13/TBP b, pre-equilibrated): 4.4 kJ · mol ^-1
c (288 K), calculated CyMe 4 -BTBP concentration ([8]; Octanol/TBP a, pristine): 3.4 mmol · L ^-1
ΔG^0 (288 K) ([8]; Octanol/TBP a, pristine): 13.6 kJ · mol ^-1
c (298 K), calculated CyMe 4 -BTBP concentration ([8]; Octanol/TBP a, pristine): 4.3 mmol · L ^-1
ΔG^0 (298 K) ([8]; Octanol/TBP a, pristine): 13.4 kJ · mol ^-1
c (308 K), calculated CyMe 4 -BTBP concentration ([8]; Octanol/TBP a, pristine): 5.5 mmol · L ^-1
ΔG^0 (308 K) ([8]; Octanol/TBP a, pristine): 13.3 kJ · mol ^-1
ΔH^0 ([8]; Octanol/TBP a, pristine): 17 kJ · mol ^-1
ΔS^0 ([8]; Octanol/TBP a, pristine): 14 J · mol ^-1· K ^-1
ΔH^0 linear ([8]; Octanol/TBP a, pristine): 18.0 ± 1.1 kJ · mol ^-1
ΔS^0 linear ([8]; Octanol/TBP a, pristine): 15.0 ± 0.8 J · mol ^-1· K ^-1
ΔCp [8, 14]: 2.3 kJ · mol ^-1· K ^-1
ΔH^0 [8, 14]: 21 kJ · mol ^-1
ΔS^0 [8, 14]: 33 J · mol ^-1· K ^-1
ΔH^0 linear [8, 14]: 20.0 ± 1.0 kJ · mol ^-1
ΔS^0 linear [8, 14]: 31.6 ± 0.7 J · mol ^-1· K ^-1
c (288 K), calculated CyMe 4 -BTBP concentration [8, 15]: 11 mmol · L ^-1
ΔG^0 (288 K) [8, 15]: 10.9 kJ · mol ^-1
c (298 K), calculated CyMe 4 -BTBP concentration [8, 15]: 14 mmol · L ^-1
ΔG^0 (298 K) [8, 15]: 10.6 kJ · mol ^-1
c (308 K), calculated CyMe 4 -BTBP concentration [8, 15]: 18 mmol · L ^-1
ΔG^0 (308 K) [8, 15]: 10.2 kJ · mol ^-1

O=C1CCCCC1 [Cyclohexanone, cyclohexanone]
Surface tension [1]: 34.4^a mN · m ^-1
Flash point [2]: 317 K^a
Density [3]: 0.95^b g · cm ^-3
Solvent in water [4]: 2.3^b wt%
Water in solvent [4]: 8.0^b wt%

O=S(=O)(c1ccccc1)C(F)(F)F [FS-13, phenyl trifluoromethyl sulfone]
Density [9]: 1.40 ± 0.01 g · cm ^-3
Surface tension [10]: 26.6 ± 0.01 mN · m ^-1
Flash point [2]: 395 K^d
